In brackets after ≈: the same amount, converted by molar mass.
What was measured:
[1] = system: Mycobacterium tuberculosis; assay: Antimycobacterial activity against Mycobacterium bovis var. bovis BCG in 7H11 solid medium after 7 days; assay type: functional; conditions: variant bovis BCG, 168 h
[2] = system: Mycobacterium tuberculosis; assay: Antimycobacterial activity against Mycobacterium bovis var. bovis BCG in 7H9 liquid medium after 7 days; assay type: functional; conditions: variant bovis BCG, 168 h

SMILES: CC(=O)Oc1ccccc1C(=O)Nc1ncc([N+](=O)[O-])s1 [NITAZOXANIDE]
- MIC [1]: 16 µg/mL (≈ 52.1 µM)
- MIC [2]: 16 µg/mL (≈ 52.1 µM)

From ChEMBL document CHEMBL1153535, “Nitazoxanide kills replicating and nonreplicating Mycobacterium tuberculosis and evades resistance” (J Med Chem, 2009)
